Reference: ChEMBL document CHEMBL1138675 (J Med Chem, 2004)

Tests used:
[1] = target: T1, Melatonin receptor type 1A (Homo sapiens, UniProt P48039)
[2] = target: T2, Melatonin receptor type 1B (Homo sapiens, UniProt P49286); assay: Binding affinity for human recombinant Melatonin receptor type 2 expressed in NIH3T3 cells; assay type: cell-based
T2 sequence (P49286 whole entry): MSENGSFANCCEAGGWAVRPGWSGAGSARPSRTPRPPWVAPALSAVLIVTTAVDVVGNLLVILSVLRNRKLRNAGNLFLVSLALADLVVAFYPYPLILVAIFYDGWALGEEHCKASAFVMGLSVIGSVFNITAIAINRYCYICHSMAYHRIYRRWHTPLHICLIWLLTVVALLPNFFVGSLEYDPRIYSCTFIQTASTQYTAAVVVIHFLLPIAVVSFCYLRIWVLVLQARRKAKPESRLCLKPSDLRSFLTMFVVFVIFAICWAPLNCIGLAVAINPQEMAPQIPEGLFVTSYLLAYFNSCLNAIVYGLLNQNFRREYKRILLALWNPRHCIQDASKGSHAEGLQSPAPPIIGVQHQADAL

[3] = target: T3, Melatonin receptor type 1B (Homo sapiens) (UniProt P49286)
T3 sequence (whole entry): T2 sequence (P49286 whole entry)

[4] = target: T1, Melatonin receptor type 1A; assay: Binding affinity for human recombinant Melatonin receptor type 1 expressed in NIH3T3 cells; assay type: cell-based

T1 sequence (P48039 whole entry): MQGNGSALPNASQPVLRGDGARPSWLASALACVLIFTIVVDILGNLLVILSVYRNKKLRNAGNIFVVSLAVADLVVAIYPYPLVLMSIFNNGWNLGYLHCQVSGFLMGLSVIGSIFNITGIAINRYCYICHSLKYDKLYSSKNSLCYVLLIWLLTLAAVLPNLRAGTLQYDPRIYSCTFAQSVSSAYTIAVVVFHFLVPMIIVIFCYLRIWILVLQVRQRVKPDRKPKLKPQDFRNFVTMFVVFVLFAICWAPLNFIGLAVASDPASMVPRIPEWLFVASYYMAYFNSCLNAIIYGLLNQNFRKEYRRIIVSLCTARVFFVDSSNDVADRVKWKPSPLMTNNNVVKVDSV

Row | IAr [1] | Ki [2] | IAr [3] | Ki [4] | Structure (SMILES)
1 | -0.14 | 0.891 nM | -0.08 | 3.02 nM | COc1ccc2c(c1)C(CNC(C)=O)Cc1ccccc1C2=O (configuration not stated)
2 | 0.02 | 85.1 nM | -0.09 | 550 nM | CC(=O)NCC1=Cc2ccccc2Cc2ccccc21
3 | -0.07 | 39.8 nM | 0.01 | 162 nM | COc1ccc2c(c1)C(CCNC(C)=O)Cc1ccccc1C2 (configuration not stated)
4 | 1 |  |  |  | COc1ccc2[nH]cc(CCNC(C)=O)c2c1
5 | -0.18 | 0.661 nM | -0.55 | 6.17 nM | COc1ccc2c(c1)C(CNC(C)=O)Cc1ccccc1C2 (configuration not stated)
6 | -0.09 | 0.245 nM | -0.17 | 1.29 nM | CCCC(=O)NCC1Cc2ccccc2Cc2ccc(OC)cc21 (configuration not stated)
7 | 0.01 | 126 nM | -0.03 | 112 nM | CC(=O)NCCN1c2ccccc2C=Cc2ccccc21
8 | -0.1 | 0.162 nM | -0.15 | 1.35 nM | CCC(=O)NCC1Cc2ccccc2Cc2ccc(OC)cc21 (configuration not stated)
9 |  | 11000 nM |  | 20400 nM | CC(=O)NCC(=O)N1c2ccccc2C=Cc2ccccc21
10 | 0.21 | 89.1 nM | 0.69 | 389 nM | CC(=O)NCCC1Cc2ccccc2Cc2ccccc21 (configuration not stated)
11 | -0.04 | 38 nM | -0.1 | 57.5 nM | CCC(=O)NCCN1c2ccccc2C=Cc2ccc(OC)cc21
12 | 0.03 | 200 nM | 0.13 | 550 nM | CCC(=O)NCCN1c2ccccc2CCc2ccccc21
13 | 0.03 | 30.2 nM | -0.32 | 240 nM | CC(=O)NCC1Cc2ccccc2Cc2ccccc21 (configuration not stated)
